Patent publication US20260001871A1, “TRIAZOLE DERIVATIVES AS MODULATORS OF MAS-RELATED G-PROTEIN RECEPTOR D” (ESCIENT PHARMACEUTICALS, INC., priority 2022, published 2026)

Biological target: human MRGPRD (Homo sapiens, UniProt Q8TDS7)
Experiment: MRGPRD antagonist activity, IP-One HTRF assay in CHO cells stably expressing human MRGPRD (versus 100 μM β-Alanine agonist)
Type: cell-based
Description: Chinese Hamster Ovary (CHO) cells stably expressing human MRGPRD (Eurofins, San Diego CA) were plated in a 384-well plate at 20,000 cells per well in 12 μL of Optimem (Fisher Scientific 11-058-021). Plates were kept in the incubator at 37° C. overnight. Antagonists were solubilized at a concentration of 10 mM in DMSO, and the agonists were solubilized to stock concentrations of either 50 mM in H2O (β-Alanine) or 10 mM in DMSO (all others) and then diluted in assay buffer (final concentrations of 5.7 mM Tris-HCl, 43 mM NaCl, 50 mM LiCl, pH=8). The concentration of DMSO was normalized across the plate. Antagonists were added to the plate using a Tecan D300 Digital Dispenser at nanoliter/picoliter volumes and 2 μL of agonists in assay buffer were added to each well for a final assay volume of 14 μL. Plates were covered and incubated for 1 h at 37° C. and then for 1 h at room temperature. IP-1 standards and HTRF detection reagents were added according to an IP-One—Gq Kit purchased from Cisbio (part number 621PAPEJ) and incubated in the dark for 1 h at room temperature. Assay plates were read on either a Molecular Devices SpectraMax iD5 plate reader or a BMG ClarioStar plate reader. The HTRF ratio was calculated form the raw data and graphed using GraphPad Prism to calculate IC50 values. Data are expressed as average IC50 values and average percent antagonism calculated as a percent of the maximum efficacy response. For these studies, the variability of the data was assessed by determining the standard error of mean (SEM).
The activity ranges are denoted as follows: “+++++” denotes antagonist activity<100 nM; “++++” denotes antagonist activity between 100 and 500 nM; “+++” denotes activity between 500 and 1000 nM; “++” denotes activity between 1000 and 3000 nM; and “+” denotes activity>3000 nM.

human MRGPRD, sequence (Q8TDS7 whole entry): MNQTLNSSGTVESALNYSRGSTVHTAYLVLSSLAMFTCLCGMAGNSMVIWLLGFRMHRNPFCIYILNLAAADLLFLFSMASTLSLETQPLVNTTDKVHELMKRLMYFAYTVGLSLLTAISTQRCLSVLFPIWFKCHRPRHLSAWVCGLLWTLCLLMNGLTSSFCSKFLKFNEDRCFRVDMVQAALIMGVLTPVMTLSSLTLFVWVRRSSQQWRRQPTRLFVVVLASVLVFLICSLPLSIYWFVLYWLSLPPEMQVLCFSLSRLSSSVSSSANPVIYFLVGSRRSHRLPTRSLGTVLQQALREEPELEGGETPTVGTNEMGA

Row | IC50 [µM] | Compound
1 | 0.1 to 0.5 | Cc1cc(NC(=O)c2nnn(-c3ccc(-c4ccc(C#N)cc4C)cc3)c2C2CC2)ccn1 [Compound 7-52]
2 | 0.1 to 0.5 | Cc1cc(NC(=O)c2nnn(-c3ccc(-c4ccc(C#N)cc4)cc3OC(F)(F)F)c2C2CC2)ccn1 [Compound 7-53]
3 | 0.1 to 0.5 | N#Cc1ccc(-c2ccc(-n3nnc(C(=O)Nc4ccncc4)c3C3CC3)cc2)c(F)c1 [Compound 7-54]
4 | 0.1 to 0.5 | Cn1ccc(-c2ccc(-n3nnc(C(=O)Nc4ccncc4)c3C3CC3)cc2)c1 [Compound 7-55]
5 | 0.1 to 0.5 | O=C(Nc1ccncc1)c1nnn(-c2ccc(-c3cccc(C4CC4)c3)cc2)c1C1CC1 [Compound 7-56]
6 | 0.1 to 0.5 | Cc1nocc1-c1ccc(-n2nnc(C(=O)Nc3ccncc3)c2C2CC2)cc1 [Compound 7-57]
7 | 0.1 to 0.5 | O=C(Nc1ccncc1)c1nnn(-c2ccc(-c3ccc(O)cc3)cc2)c1C1CC1 [Compound 7-58]
8 | 0.1 to 0.5 | O=C(Nc1ccncc1)c1nnn(-c2ccc(-c3ccc(CC(F)(F)F)cc3)cc2)c1C1CC1 [Compound 7-59]
9 | 0.1 to 0.5 | Cc1cc(-c2ccc(-n3nnc(C(=O)Nc4ccncc4)c3C3CC3)cc2)ccc1C#N [Compound 7-60]
10 | 0.1 to 0.5 | Cc1cc(NC(=O)c2nnn(-c3ccc(-c4ccc(C#N)cc4)cc3)c2C2CC2)ccn1 [Compound 7-61]
11 | 0.1 to 0.5 | O=C(Nc1ccncc1)c1nnn(-c2ccc(-c3cnn(C4CCC4)c3)cc2)c1C1CC1 [Compound 7-62]
12 | 0.1 to 0.5 | O=C(Nc1ccncc1)c1nnn(-c2ccc(-c3cnn(C4CCCC4)c3)cc2)c1C1CC1 [Compound 7-63]
13 | 0.1 to 0.5 | O=C(Nc1ccncc1)c1nnn(-c2ccc(-c3ccc4c(c3)CCC4)cc2)c1C1CC1 [Compound 7-64]
14 | 0.1 to 0.5 | O=C(Nc1ccncc1)c1nnn(-c2ccc(-c3ccc(F)cc3)cc2)c1C1CC1 [Compound 7-65]
15 | 0.1 to 0.5 | O=C(Nc1ccncc1)c1nnn(-c2ccc(-c3ccc(C(F)(F)F)cc3)cc2)c1C1CC1 [Compound 7-66]
16 | 0.1 to 0.5 | CC(C)C(=O)c1cccc(-c2ccc(-n3nnc(C(=O)Nc4ccncc4)c3C3CC3)cc2)c1 [Compound 7-67]
17 | 0.1 to 0.5 | Cn1nc(-c2ccccc2)cc1-c1ccc(-n2nnc(C(=O)Nc3ccncc3)c2C2CC2)cc1 [Compound 7-68]
18 | 0.1 to 0.5 | O=C(Nc1ccncc1)c1nnn(-c2ccc(-c3ccc(CO)cc3)cc2)c1C1CC1 [Compound 7-69]
19 | 0.1 to 0.5 | COc1cc(-c2ccc(-n3nnc(C(=O)Nc4ccncc4)c3C3CC3)cc2)ccc1C#N [Compound 7-70]

Row | IC50 [µM] | Compound
20 | 0.1 to 0.5 | CS(=O)(=O)c1cccc(-c2ccc(-n3nnc(C(=O)Nc4ccncc4)c3C3CC3)cc2)c1 [Compound 7-71]
21 | 0.1 to 0.5 | Cc1nn(C)cc1-c1ccc(-n2nnc(C(=O)Nc3ccncc3)c2C2CC2)cc1 [Compound 7-72]
22 | 0.1 to 0.5 | Cc1cnn(C)c1-c1ccc(-n2nnc(C(=O)Nc3ccncc3)c2C2CC2)cc1 [Compound 7-73]
23 | 0.1 to 0.5 | CC(C)C(=O)c1ccc(-c2ccc(-n3nnc(C(=O)Nc4ccncc4)c3C3CC3)cc2)cc1 [Compound 7-74]
24 | 0.1 to 0.5 | CC(=O)c1ccc(-c2ccc(-n3nnc(C(=O)Nc4ccncc4)c3C3CC3)cc2)c(F)c1 [Compound 7-75]
25 | 0.1 to 0.5 | Cc1cc(NC(=O)c2nnn(-c3ccc(-c4ccccc4)cc3)c2C2CC2)ccn1 [Compound 7-76]
26 | 0.1 to 0.5 | O=C(Nc1ccncc1)c1nnn(-c2ccc(-c3ccc[nH]3)cc2)c1C1CC1 [Compound 7-77]
27 | 0.1 to 0.5 | Cn1ncc(-c2ccc(-n3nnc(C(=O)Nc4ccncc4)c3C3CC3)cc2)n1 [Compound 7-78]
28 | 0.1 to 0.5 | O=C(Nc1ccncc1)c1nnn(-c2ccc(-c3cnsc3)cc2)c1C1CC1 [Compound 7-79]
29 | 0.1 to 0.5 | CC(=O)c1cccc(-c2ccc(-n3nnc(C(=O)Nc4ccncc4)c3C3CC3)cc2)c1 [Compound 7-80]
30 | 0.1 to 0.5 | Cc1cc(NC(=O)c2nnn(-c3ccc(-c4ccc(F)cc4)cc3)c2C2CC2)ccn1 [Compound 7-81]
31 | 0.1 to 0.5 | Cc1cc(NC(=O)c2nnn(-c3ccc(-c4ccccc4)cc3OC(F)(F)F)c2C2CC2)ccn1 [Compound 7-82]
32 | 0.1 to 0.5 | CC(O)c1ccc(-c2ccc(-n3nnc(C(=O)Nc4ccncc4)c3C3CC3)cc2)cc1 (centres unmarked) [Compound 7-83]
33 | 0.1 to 0.5 | COc1ccc(-c2ccc(-n3nnc(C(=O)Nc4ccncc4)c3C3CC3)cc2)cc1C [Compound 7-84]
34 | 0.1 to 0.5 | CC(=O)c1cccc(-c2ccc(-n3nnc(C(=O)Nc4ccncc4)c3C3CC3)cc2)c1F [Compound 7-85]
35 | 0.1 to 0.5 | CCCn1cc(-c2ccc(-n3nnc(C(=O)Nc4ccncc4)c3C3CC3)cc2)cn1 [Compound 7-86]
36 | 0.1 to 0.5 | Cc1cc(NC(=O)c2nnn(-c3ccc(-c4ccc(C#N)c(F)c4)cc3)c2C2CC2)cc(C)n1 [Compound 7-87]
37 | 0.1 to 0.5 | O=C(Nc1ccncc1)c1nnn(-c2ccc(-c3cnn(C4CC4)c3)cc2)c1C1CC1 [Compound 7-88]
38 | 0.1 to 0.5 | Cc1cnc(-c2ccc(-n3nnc(C(=O)Nc4ccncc4)c3C3CC3)cc2)s1 [Compound 7-89]

Row | IC50 [µM] | Compound
39 | 0.1 to 0.5 | O=C(Nc1ccncc1)c1nnn(-c2ccc(-c3ccc(Cl)cc3)cc2)c1C1CC1 [Compound 7-90]
40 | 0.1 to 0.5 | CCc1cccc(-c2ccc(-n3nnc(C(=O)Nc4ccncc4)c3C3CC3)cc2)c1 [Compound 7-91]
41 | 0.1 to 0.5 | CCn1nccc1-c1ccc(-n2nnc(C(=O)Nc3ccncc3)c2C2CC2)cc1 [Compound 7-92]
42 | 0.1 to 0.5 | CS(=O)(=O)c1ccc(-c2ccc(-n3nnc(C(=O)Nc4ccncc4)c3C3CC3)cc2)cc1 [Compound 7-93]
43 | 0.1 to 0.5 | O=C(Nc1ccncc1)c1nnn(-c2ccc(-c3n[nH]c4c3CCCC4)cc2)c1C1CC1 [Compound 7-94]
44 | 0.1 to 0.5 | Cc1ccc(CNC(=O)c2nnn(-c3ccc(-c4ccc(C#N)cc4C)cc3)c2C2CC2)cn1 [Compound 7-95]
45 | 0.1 to 0.5 | Cc1ccccc1-c1ccc(-n2nnc(C(=O)Nc3ccncc3)c2C2CC2)cc1 [Compound 7-96]
46 | 0.1 to 0.5 | CCn1cc(-c2ccc(-n3nnc(C(=O)Nc4ccncc4)c3C3CC3)cc2)cn1 [Compound 7-97]
47 | 0.1 to 0.5 | CN(C)c1ccc(-c2ccc(-n3nnc(C(=O)Nc4ccncc4)c3C3CC3)cc2)cc1 [Compound 7-98]
48 | 0.1 to 0.5 | O=C(Nc1ccncc1)c1nnn(-c2ccc(-c3n[nH]c4ncccc34)cc2)c1C1CC1 [Compound 7-99]
49 | 0.1 to 0.5 | Cc1c(-c2ccc(-n3nnc(C(=O)Nc4ccncc4)c3C3CC3)cc2)c(CO)nn1C [Compound 7-100]
50 | 0.1 to 0.5 | O=C(Nc1ccncc1)c1nnn(-c2ccc(-c3cccc(Cl)c3)cc2)c1C1CC1 [Compound 7-101]
51 | 0.1 to 0.5 | Cc1n[nH]c(C)c1-c1ccc(-n2nnc(C(=O)Nc3ccncc3)c2C2CC2)cc1 [Compound 7-102]
52 | 0.1 to 0.5 | O=C(Nc1ccncc1)c1nnn(-c2ccc(-c3ccn(-c4ccccc4)n3)cc2)c1C1CC1 [Compound 7-103]
53 | 0.1 to 0.5 | CC(=O)c1ccc(-c2ccc(-n3nnc(C(=O)Nc4ccncc4)c3C3CC3)cc2)cc1F [Compound 7-104]
54 | 0.1 to 0.5 | O=C(Nc1ccncc1)c1nnn(-c2ccc(-c3cnoc3)cc2)c1C1CC1 [Compound 7-105]
55 | 0.1 to 0.5 | CC(C)n1nccc1-c1ccc(-n2nnc(C(=O)Nc3ccncc3)c2C2CC2)cc1 [Compound 7-106]
56 | 0.1 to 0.5 | O=C(Nc1ccncc1)c1nnn(-c2ccc(-c3cccc(CC(F)(F)F)c3)cc2)c1C1CC1 [Compound 7-107]
